Broadly, the Kd is a measure of binding affinity in units of concentration. A low value points to a tighter complex.

The results in this text go back to patent US20230027854A1, “ISOXAZOLE DERIVATIVES TARGETING TACC3 AS ANTICANCER AGENTS” (A2A Pharmaceuticals, inc., priority 2019, published 2023).

A short description of data set [1]: Kinetic solubility in sodium phosphate buffer. The data set is classed as physicochemical. The conditions noted are these: pH 7.4, 25° C., 2 h.
Data set [2] concerns the target T1, TACC3 (Homo sapiens, UniProt Q9Y6A5). In words: Cellular thermal shift assay (CETSA) in intact JIMT-1 cells. The data set is classed as binding. The arrangement: endogenous in cells; host or cells: JIMT-1. To be noted: 1 μM, 6 h. The text has this:
Protein thermal melting curves are also showing a thermal shift between vehicle and compound 5 treated band intensities. This interaction was also validated with isothermal titration calorimetry (ITC). […] DARTS is a label free-strategy to identify potential direct protein targets for small molecules and is based on stabilization and protection from proteolysis of the target protein upon binding to small molecules (Lomenick, Jung et al. 2011, Pai, Lomenick et al. 2015).
After treatment, cell pellets were resuspended in Tris-buffered saline (TBS) containing protease and phosphatase inhibitors. The cell suspension was divided into 6 PCR tubes and heated for 5 min to 45, 46, 47, 48, 49, 50° C. Subsequently, cells were lysed by three repeated freeze-thaw cycles with liquid nitrogen. Soluble proteins were collected with centrifugation at 20,000 g for 20 min at 4° C. and analyzed by sodium dodecyl sulfate polyacrylamide gel electrophoresis (SDS-PAGE) followed by western blot analysis.

Data set [3] deals with 4T1-Luc2. In words: 4T1-Luc2 lung metastasis model. The data set is classed as in vivo, mice. Here is the method:
Next, to examine the effects of TACC3 inhibition on metastatic growth, an aggressive murine mammary tumor cells, 4T1-Luc2 (luciferase labelled), were injected intravenously to immunocompetent female mice. […] Metastatic outgrowth was monitored with in vivo imaging system (IVIS) by measuring bioluminescence.
Highly aggressive and metastatic 4T1-Luc2 (luciferase labelled) cells were prepared in PBS as 1×10^6 cells/mouse and injected intravenously to Balb/c female mice. Metastasis development was monitored using in vivo imaging system (IVIS) and bioluminescence was quantified regularly. […] Survival was calculated when mice died.

The procedure of data set [4]:
Mice body weight was measured regularly, and organs were collected for determination of possible toxicity.

Data set [5] deals with T1, TACC3. In words: Isothermal titration calorimetry (ITC) of TACC3 into compound 5. The class given is binding. The arrangement: purchased Origene TP310754. The conditions noted are these: 25° C. Here is the method: DARTS is a label free-strategy to identify potential direct protein targets for small molecules and is based on stabilization and protection from proteolysis of the target protein upon binding to small molecules (Lomenick, Jung et al. 2011, Pai, Lomenick et al. 2015).
Titrations were carried out using Microcal 200 equipment (GE Healthcare, Austria) at 25° C. For each titration, 10 injections were made with 6 min spacing. The reference power was set at 2 μcal/sec, and the sample cell was continuously stirred at 500 rpm. In order to assess the binding efficiency between drug and protein, background data obtained by protein injected into buffer alone was subtracted from the experimental isotherms. The data was analyzed using Origin 7 Software provided along with the ITC200, and binding parameters such as association constant (Ka), number of binding sites (N) and enthalpy (ΔH) were calculated.

The test system of data set [6] is JIMT-1, MDA-MB-436, MDA-MB-157 and BT-474 T-DM1R cell lines. Nature of the data set: Cell viability (SRB) of breast cancer cell lines, three TACC3 inhibitors compared. The conditions noted are these: all cell lines tested, 72 hours. The class given is cell-based, human. As to the method:
JIMT-1, MDA-MB-436, MDA-MB-157 and BT-474 T-DM1R cell lines were tested with respect to their response to these three drugs. […] Although higher KHS101 doses was included, which were used by others (Campo & Breuer, 2018), an induction of these markers was only observed at very high doses.

Data set [7] has as its system EMT6. The conditions noted are these: 25 mg/kg every day orally. Here is the method: Murine triple negative breast cancer (TNBC) cell line, EMT6, which is a fast-growing and highly aggressive model (Yang, Yang et al. 2017), was injected into MFPs of syngeneic Balb/c mice.
Six-to-eight-week-old female athymic nude or Balb/c mice were housed with a temperature-controlled and 12-hour light/12-hour dark cycle environment. This study was carried out in accordance with Institutional Animal Care and Use Committee of Bilkent University and performed according to the institution's guidelines and animal research principles. For in vivo breast cancer tumor growth in nude mice, 4×10^6 JIMT-1 cells were prepared in 150 μl of 1:1 DMEM and Matrigel (Corning, N.Y., USA), v/v) and injected into the mammary fat pads (MFP) of female nude mice. Mouse weight and tumor volume were measure daily using calipers. Tumor volumes were calculated as length×width^2×0.5. Once the tumor volume had reached about 90-100 mm^3, xenografts were randomized into groups. […] Mice were sacrificed 20-30 days after initiation of the treatments, and the tumors were collected and stored for subsequent analyses. […] 1×10^6 EMT-6 cells were prepared in PBS and injected into MFPs of mice. […] Survival was calculated using a predefined tumor volume cut-off of 1500 mm^3.

The test system of data set [8] is JIMT-1 cells. Nature of the data set: Immunofluorescence of aberrant spindle formation. The class given is cell-based, human. The conditions noted are these: highest dose, 12 h. The source says: The presence of spindle defects activates the spindle assembly checkpoint (SAC) that further leads to mitotic arrest to provide the necessary time for repairing the spindle defects (Musacchio and Salmon 2007). […] To further test the contribution of an active SAC signaling to compound 5-induced mitotic arrest, DNA damage and cell death, we inhibited the SAC kinase, Mps1 using a specific inhibitor (TC Mps1 (Choi, Min et al. 2017)) in compound 5-treated cells, and analyzed the expression of relevant markers.
Immunofluorescence staining of JIMT-1 cells were performed as previously described (Cizmecioglu, Arnold et al. 2010). Basically, 1.5×10^5 JIMT-1 cells/well were seeded on glass coverslip in 6-well plates. […] Then, they are fixed with ice-cold methanol for 10 min at −20° C. Cells were then blocked with 3% BSA in PBS solution for 1 hour at RT and incubated with primary and secondary antibodies for 1 hour at RT. Cells were counter stained with DAPI for 5 min (0.01 μg/ml). Lastly, cover slides were mounted using ImmunoHistomounth (Santa Cruz). Images were taken with an upright fluorescent microscope equipped with DIC prisms (upright).

In data set [9] the test system is CT26. To be noted: 25-50 mg/kg daily and orally. Here is the method:
(§1) Female nude mice and Balb/c mice were injected with human colon carcinoma cell line, HCT-116, and murine colon carcinoma cell line, CT26, respectively, into flank region of mice.
(§2) 4×10^6 HCT-116 and 1×10^6 cells were prepared either in matrigel:PBS or in PBS, respectively, and injected subcutaneously into flank region of mice. […] Mice body weight was measured regularly.

Data set [10] concerns HCT-116. The conditions noted are these: 25-50 mg/kg daily and orally. As to the method: as §1, §2

Structures are written as SMILES.

Turning to `COc1ccc(-c2cc(Nc3ccnc(N4CCOCC4)n3)on2)cc1` [Compound 5], the solubility result in data set [1] is on record as “low solubility”. Besides, the “stabilization of cellular TACC3 upon temperature increase” value in data set [2] is “considerably stabilized cellular TACC3”. In data set [3] (50 mg/kg daily orally), the “metastatic growth compared to vehicle” value is listed as “impair metastatic growth” and the overall survival entry is “significantly improved mice overall survival”. For the same compound, the median survival in data set [3] (50 mg/kg every day orally, vehicle 19 days) was 28 days. Also, the “body weight and observable toxicity” value in data set [4] (100 mg/kg daily for 7 days) is on record as “did not affect body weight”. Also, the organ toxicity entry in [4] (500 mg/kg once) is “no organ toxicity was observable”. In addition, the “loss of body weight” value in data set [4] (500 mg/kg once, 24 h after drug treatment) is 10%. Moreover, in [5], the Kd was found to be 1.5 nM, the “N (number of binding sites)” value is recorded as 0.704, the ΔH was 49290 kcal/mol and the ΔS stood at 1.65E5 cal/mol/deg. In data set [6], the “IC50 values compared with KHS101 and SPL-B” value is “significantly lower IC50 values”. Besides, in [7], the tolerability entry is on record as “well tolerated” and the tumor growth inhibition result is on record as “significant tumor growth inhibition”. Moreover, the increased lifespan in [7] (compared to vehicle) is on record as 57.1%. This compound gave a median survival in [7] (vehicle 14 days) of 22 days. For the same compound, the “frequency of multipolar spindles” value in data set [8] was 73.4%. Moreover, in data set [9], the tolerability entry is recorded as “well tolerated” and the tumor growth entry was “significantly impaired tumor growth”. Moreover, in [10], the tolerability entry is “well tolerated” and the tumor growth entry is on record as “significantly impaired tumor growth”.
